Patent US9902725B2, “Heterocyclic derivatives as RORgamma modulators” (GENFIT, priority 2014, dated 2018)

Target: T1, RORγt ligand-binding domain (RORγt-LBD) (Homo sapiens, UniProt P51449)
T1 construct: 20 nM recombinantly expressed RORγ-LBD fused to GST
T1 sequence (P51449 269-508 limits assumed): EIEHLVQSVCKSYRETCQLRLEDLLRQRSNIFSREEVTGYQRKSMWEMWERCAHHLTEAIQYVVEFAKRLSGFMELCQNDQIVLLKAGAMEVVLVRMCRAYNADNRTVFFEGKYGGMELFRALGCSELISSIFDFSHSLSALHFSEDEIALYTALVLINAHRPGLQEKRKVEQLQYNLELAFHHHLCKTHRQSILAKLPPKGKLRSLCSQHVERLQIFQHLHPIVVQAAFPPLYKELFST
Test: Time-resolved FRET (TR-FRET) RORγt coactivator assay
Format: biochemical
Conditions: GST-RORγ-LBD, biotinylated RIP140 peptide, coactivator displacement
Description: Time-resolved FRET (TR-FRET) RORγt coactivator assay was used to identify RORγ modulator compounds with ligand-dependent coactivator displacement. The assay uses a d2-labeled anti-GST antibody, synthetic N-terminally biotinylated peptide which is derived from nuclear receptor coactivator protein RIP140, and a RORγt ligand-binding domain (RORγt-LBD) that is tagged with glutathione-S-transferase (GST). The influence of compounds on the RORγ-peptide interaction relies on the binding dependent energy transfer from a donor to an acceptor fluorophore attached to the binding partner of interest. […] For reduction of background from compound fluorescence, TR-FRET method makes use of generic fluorophore labels and time resolved detection.
The assays were done in a final volume of 20 μl in a 384 well plate in a CHAPS buffer (2 mM CHAPS; 1 mM DTT, 2 mM EDTA; 0.1% BSA), containing 20 nM recombinantly expressed RORγ-LBD fused to GST, 30 nM N-terminally biotinylated peptide, 1 nM streptavidin-terbium conjugate and 20 nM d2 labeled-anti-GST. Test compounds were diluted using 10 mM stock solution. The range of the final compound concentrations used in this test was from 0.3 nM to 30 μM (logarithmic scale). DMSO content of the samples was kept at 1%. The assay was equilibrated for 2 hours in the dark at room temperature in 384 well plates (Falcon). The signal was detected by an Ultra384 reader (TECAN). The results were visualized by plotting the ratio between the emitted light at 665 nm and 620 nm. A basal level of RORγ-peptide formation is observed in the absence of added compound. Compounds that promote coactivator displacement induce a concentration-dependent decrease in time-resolved fluorescent signal. Data were collected and analyzed using GraphPad Prism software (GraphPad Software V5.02, San Diego Calif. USA). IC50 in μM and Emax in % were reported for each compound.

| Compound | IC50 |
| --- | --- |
| Cc1ccc(C(NC(=O)Cc2ccc3[nH]cc(CCC(=O)OC(C)(C)C)c3c2)c2ccccc2)c(N2CCCCCC2)c1 (centres unmarked) [Cpd. 250, tert-butyl 3-{5-[({[2-(azepan-1-yl)-4-methylphenyl](phenyl)methyl}carbamoyl)methyl]-1H-indol-3-yl}propanoate] | < 1 µM |
| Cc1cc(C(NC(=O)Cc2ccc3[nH]cc(CCC(=O)OC(C)(C)C)c3c2)c2ccccc2N2CCCCC2)oc1C (centres unmarked) [Cpd. 252, tert-butyl 3-[5-({[(4,5-dimethylfuran-2-yl)[2-(piperidin-1-yl)phenyl]methyl]carbamoyl}methyl)-1H-indol-3-yl]propanoate] | 1 to 10 µM |
| Cc1ccc(C(NC(=O)Cc2ccc3[nH]cc(CCC(=O)OC(C)(C)C)c3c2)c2ccccc2OC(C)C)o1 (centres unmarked) [Cpd. 254, tert-butyl 3-[5-({[(5-methylfuran-2-yl)[2-(propan-2-yloxy)phenyl]methyl]carbamoyl}methyl)-1H-indol-3-yl]propanoate] | < 1 µM |
| COC(=O)Cc1c[nH]c2ccc(CC(=O)NC(c3ncccn3)c3ccc(C)cc3Br)cc12 (centres unmarked) [Cpd. 256, methyl 2-[5-({[(2-bromo-4-methylphenyl)(pyrimidin-2-yl)methyl]carbamoyl}methyl)-1H-indol-3-yl]acetate] | 1 to 10 µM |
| C#CCC(NC(=O)Cc1ccc2[nH]cc(CCC(=O)OC(C)(C)C)c2c1)c1ccccc1N1CCCCC1 (centres unmarked) [Cpd. 260, tert-butyl 3-{5-[({1-[2-(piperidin-1-yl)phenyl]but-3-yn-1-yl}carbamoyl)methyl]-1H-indol-3-yl}propanoate] | 1 to 10 µM |
| Cc1ccc(Cl)c(C(NC(=O)Cc2ccc3[nH]cc(CCC(=O)O)c3c2)c2ccccc2)c1 (centres unmarked) [compound 42, 3-[5-({[(2-chloro-5-methylphenyl)(phenyl)methyl]carbamoyl}methyl)-1H-indol-3-yl]propanoic acid] | < 1 µM |
| Cc1cc(Br)ccc1C(NC(=O)Cc1ccc2[nH]cc(CCC(=O)O)c2c1)c1ccccc1 (centres unmarked) [compound 44, 3-[5-({[(4-bromo-2-methylphenyl)(phenyl)methyl]carbamoyl}methyl)-1H-indol-3-yl]propanoic acid] | < 1 µM |
| Cc1cc(F)ccc1C(NC(=O)Cc1ccc2[nH]cc(CCC(=O)O)c2c1)c1ccccc1 (centres unmarked) [compound 46, 3-[5-({[(4-fluoro-2-methylphenyl)(phenyl)methyl]carbamoyl}methyl)-1H-indol-3-yl]propanoic acid] | < 1 µM |
| Nc1ccccc1C(NC(=O)Cc1ccc2[nH]cc(CCC(=O)O)c2c1)c1ccccc1 (centres unmarked) [compound 52, 3-[5-({[(2-aminophenyl)(phenyl)methyl]carbamoyl}methyl)-1H-indol-3-yl]propanoic acid] | 1 to 10 µM |
| CN(C)c1ccccc1C(NC(=O)Cc1ccc2[nH]cc(CCC(=O)O)c2c1)c1ccccc1 (centres unmarked) [compound 54, 3-{5-[({[2-(dimethylamino)phenyl](phenyl)methyl}carbamoyl)methyl]-1H-indol-3-yl}propanoic acid] | < 1 µM |
| O=C(O)CCc1c[nH]c2ccc(NC(=O)NC(c3ccccc3)c3ccccc3N3CCCCC3)cc12 (centres unmarked) [compound 56, 3-{5-[({phenyl[2-(piperidin-1-yl)phenyl]methyl}carbamoyl)amino]-1H-indol-3-yl}propanoic acid] | < 1 µM |
| CC(C)CC(NC(=O)Cc1ccc2[nH]cc(CCC(=O)O)c2c1)c1ccccc1N1CCOCC1 (centres unmarked) [compound 58, 3-{5-[({3-methyl-1-[2-(morpholin-4-yl)phenyl]butyl}carbamoyl)methyl]-1H-indol-3-yl}propanoic acid] | < 1 µM |
| NC(=O)c1ccc(C(NC(=O)Cc2ccc3[nH]cc(CCC(=O)O)c3c2)c2ccccc2)c(N2CCCC2)c1 (centres unmarked) [compound 63, 3-{5-[({[4-carbamoyl-2-(pyrrolidin-1-yl)phenyl](phenyl)methyl}carbamoyl)methyl]-1H-indol-3-yl}propanoic acid] | 1 to 10 µM |
| O=C(O)Cc1c[nH]c2ccc(CC(=O)NC(c3ccccc3)c3ccc(Br)cc3N3CCCC3)cc12 (centres unmarked) [compound 67, 2-{5-[({[4-bromo-2-(pyrrolidin-1-yl)phenyl](phenyl)methyl}carbamoyl)methyl]-1H-indol-3-yl}acetic acid] | < 1 µM |
| O=C(O)Cc1c[nH]c2ccc(NC(=O)NC(c3ccccc3)c3ccccc3N3CCCCC3)cc12 (centres unmarked) [compound 69, 2-{5-[({phenyl[2-(piperidin-1-yl)phenyl]methyl}carbamoyl)amino]-1H-indol-3-yl}acetic acid] | 1 to 10 µM |

Results, then the compound that gave them:

| IC50 | Compound |
| --- | --- |
| 1 to 10 µM | CN(C)c1ccccc1C(NC(=O)Cc1ccc2[nH]cc(CC(=O)O)c2c1)c1ccccc1 (centres unmarked) [compound 71, 2-{5-[({[2-(dimethylamino)phenyl](phenyl)methyl}carbamoyl)methyl]-1H-indol-3-yl}acetic acid] |
| 1 to 10 µM | O=C(O)Cc1c[nH]c2ccc(CC(=O)NC(c3ccccc3)c3ccccc3N3CCCC3)cc12 (centres unmarked) [compound 73, 2-{5-[({phenyl[2-(pyrrolidin-1-yl)phenyl]methyl}carbamoyl)methyl]-1H-indol-3-yl}acetic acid] |
| 1 to 10 µM | O=C(O)Cc1c[nH]c2ccc(CC(=O)NC(c3ccccc3)c3ccccc3N3CCCCCC3)cc12 (centres unmarked) [compound 75, 2-{5-[({[2-(azepan-1-yl)phenyl](phenyl)methyl}carbamoyl)methyl]-1H-indol-3-yl}acetic acid] |
| < 1 µM | O=C(O)CCc1c[nH]c2ccc(CC(=O)NC(c3ccccc3)c3ccccc3N3CCCC3)cc12 (centres unmarked) [compound 79, 3-{5-[({phenyl[2-(pyrrolidin-1-yl)phenyl]methyl}carbamoyl)methyl]-1H-indol-3-yl}propanoic acid] |
| < 1 µM | Cc1ccc(C(NC(=O)Cc2ccc3[nH]cc(CCC(=O)O)c3c2)c2ccccc2)c(N2CCOCC2)c1 (centres unmarked) [compound 81, 3-{5-[({[4-methyl-2-(morpholin-4-yl)phenyl](phenyl)methyl}carbamoyl)methyl]-1H-indol-3-yl}propanoic acid] |
| < 1 µM | COc1ccc(C(NC(=O)Cc2ccc3[nH]cc(CCC(=O)O)c3c2)c2ccccc2)c(C)c1 (centres unmarked) [compound 83, 3-[5-({[(4-methoxy-2-methylphenyl)(phenyl)methyl]carbamoyl}methyl)-1H-indol-3-yl]propanoic acid] |
| < 1 µM | O=C(O)Cc1c[nH]c2ccc(CC(=O)NC(c3ccccc3)c3ccc(Cl)cc3N3CCCC3)cc12 (centres unmarked) [compound 85, 2-{5-[({[4-chloro-2-(pyrrolidin-1-yl)phenyl](phenyl)methyl}carbamoyl)methyl]-1H-indol-3-yl}acetic acid] |
| < 1 µM | O=C(O)Cc1c[nH]c2ccc(CC(=O)NC(c3ccccc3)c3ccc(C(F)(F)F)cc3N3CCCC3)cc12 (centres unmarked) [compound 89, 2-{5-[({phenyl[2-(pyrrolidin-1-yl)-4-(trifluoromethyl)phenyl]methyl}carbamoyl)methyl]-1H-indol-3-yl}acetic acid] |
| < 1 µM | O=C(O)CCc1c[nH]c2ccc(CC(=O)NC(c3ccccc3)c3ccc(F)cc3N3CCCC3)cc12 (centres unmarked) [compound 93, 3-{5-[({[4-fluoro-2-(pyrrolidin-1-yl)phenyl](phenyl)methyl}carbamoyl)methyl]-1H-indol-3-yl}propanoic acid] |
| 1 to 10 µM | O=C(O)CCc1c[nH]c2ncc(NC(=O)NC(c3ccccc3)c3ccccc3N3CCCCC3)cc12 (centres unmarked) [compound 95, 3-{5-[({phenyl[2-(piperidin-1-yl)phenyl]methyl}carbamoyl)amino]-1H-pyrrolo[2,3-b]pyridin-3-yl}propanoic acid] |
| < 1 µM | COc1cc(C)ccc1C(NC(=O)Cc1ccc2[nH]cc(CCC(=O)O)c2c1)c1ccccc1 (centres unmarked) [compound 99, 3-[5-({[(2-methoxy-4-methylphenyl)(phenyl)methyl]carbamoyl}methyl)-1H-indol-3-yl]propanoic acid] |
| < 1 µM | Cc1ccc(C(NC(=O)Cc2ccc3[nH]cc(CCC(=O)O)c3c2)c2ccc(C)s2)c(C)c1 (centres unmarked) [compound 101, 3-[5-({[(2,4-dimethylphenyl)(5-methylthiophen-2-yl)methyl]carbamoyl}methyl)-1H-indol-3-yl]propanoic acid] |
| 1 to 10 µM | Cc1ccc(C(NC(=O)Cc2ccc3[nH]cc(CCC(=O)O)c3c2)c2ccccc2)c(N2CCN(C)CC2)c1 (centres unmarked) [compound 103, 3-{5-[({[4-methyl-2-(4-methylpiperazin-1-yl)phenyl](phenyl)methyl}carbamoyl)methyl]-1H-indol-3-yl}propanoic acid] |
| < 1 µM | O=C(O)CCc1c[nH]c2ccc(CC(=O)NC(c3ccccc3)c3ccccc3-n3cccc3)cc12 (centres unmarked) [compound 107, 3-{5-[({phenyl[2-(1H-pyrrol-1-yl)phenyl]methyl}carbamoyl)methyl]-1H-indol-3-yl}propanoic acid] |
